Reference: a melting point compilation (Tetko et al.; mined from patent text by program, amines drawn as free bases though some values may be those of a salt)

Row | SMILES | melting point [°C]
1 | COC(=O)CC(Cc1ccccc1)C(=O)N[C@@H](Cc1ccccc1)C(=O)O (stereo partly drawn) | 100 to 104
2 | Cc1nc(C)c(Cl)c(NCc2nccc(SCCCSc3sccc3[N+](=O)[O-])c2C)n1 | 174 to 180
3 | O=C(c1cc2ccc(N3CCOCC3)cc2o1)C12CC3CC(CC(C3)C1)C2 | 123 to 125
4 | CCOC(=O)C1=C(C(C)C)Nc2n[nH]cc2C1c1ccccc1Cl (stereo not drawn) | 211 to 213
5 | OC1CSC(Oc2cncc(-c3ccc(F)cc3Cl)c2)C(O)C1O (stereo not drawn) | 208 to 211
6 | CCN1CCc2cc(Nc3ncc(Cl)c(N[C@@H]4CCCC[C@H]4NS(C)(=O)=O)n3)c(OC)cc2CC1=O | 139 to 150
7 | O=C1C(=Cc2cccc(OCCCCl)c2)Cc2ccccc21 | 73 to 75
8 | CCCCCCCCCCCC(=O)c1cn(CCCC(=O)O)c2ccccc12 | 88 to 90
9 | COc1ccc2cccnc2c1[N+](=O)[O-] | 178
10 | CC(C)c1c(C(=O)O)cnn1-c1ccc(Cl)cc1 | 211 to 212
11 | COc1ccnc(CCc2nc3cccnc3[nH]2)c1 | 116 to 117
12 | CC(C)NC1=NS(=O)(=O)c2c(Cl)cccc2N1 | 144 to 146
13 | O=C(CN1CCC(Cc2ccccc2)CC1)Nc1cccc([N+](=O)[O-])c1 | 102 to 104
14 | N#Cc1cc(F)c(-n2c(=O)cc(C(F)(F)F)[nH]c2=O)cc1Oc1cccc2c(O)cccc12 | 168
15 | O=[N+]([O-])c1cc(Cl)ccc1NCCSSCCNc1ccc(Cl)cc1[N+](=O)[O-] | 187 to 188
16 | c1ccc(CNc2nc3c(c4[nH]c(Cc5ccccc5)nc24)CCCC3)cc1 | 199 to 200
17 | CCCCNC(=O)NS(=O)(=O)c1c(Cl)cccc1S(=O)(=O)N(C)C | 107 to 115
18 | CSc1ccc(N2C(=O)N(CC(=O)Nc3c(C(C)C)cccc3C(C)C)C(=O)C23CCOCC3)cc1 | 240
19 | CC[Si](CC)(Cc1ccc(N(c2ccccc2)c2ccccc2)cc1)Cc1ccc(N(c2ccccc2)c2ccccc2)cc1 | 115 to 117
20 | NC(=O)C1CCc2cc(C3CCCCCC3)c(Cl)cc21 (stereo not drawn) | 170 to 171
21 | CCc1cc2c(s1)-n1c(C)nnc1C(CCC(=O)Nc1ccccc1)N=C2c1ccc(Cl)cc1 (stereo not drawn) | 183 to 185
22 | COc1cccc(C(O)CN(C)Cc2sc3c(=O)c(C(=O)NCc4ccc(Cl)cc4)cn(C)c3c2CO)c1 (stereo not drawn) | 165 to 168
23 | CCC1(C)CC(S(=O)(=O)C(Cl)(Cl)c2cccc(F)c2)=NO1 (stereo not drawn) | 100

Row | SMILES | melting point [°C]
24 | CN1CCN(Cc2ccc(NC(=O)c3cccc4cc(Oc5cc(N)ncn5)ccc34)cc2C(F)(F)F)CC1 | 127 to 130
25 | Cc1nc(-n2cnn(CC3CC3(F)F)c2=O)sc1C(=O)NCc1cccnc1 (stereo not drawn) | 160 to 161
26 | CC(C)C(C#N)c1ccc([N+](=O)[O-])cc1 (stereo not drawn) | 71 to 72
27 | CCC(O)(c1ccc(O)cc1)c1cccc(C(F)(F)F)c1 (stereo not drawn) | 102 to 103
28 | COc1ccc2nc3c(c(-c4ccc(F)cc4)c2c1)CNC3=O | 284 to 286
29 | O=C1Nc2cccnc2N(C(=O)N2CCCC(CCCN3CCCCC3)C2)c2ccccc21 (stereo not drawn) | 123 to 125
30 | Cc1nc(-n2cccc(O)c2=O)sc1C(=O)NCc1ccccc1 | 225 to 228
31 | OC1COC(O)C(F)(F)C1O (stereo not drawn) | 146 to 148
32 | O=C(CBr)c1ccc(OCc2ccccc2)c(OCc2ccccc2)c1Cl | 94 to 96
33 | O=C(O)C1CCN(c2ncc(NS(=O)(=O)c3ccc(Br)cc3)c(NCc3ccccc3)n2)CC1 | 136 to 138
34 | O=S(=O)(c1ccccc1F)n1ccc2c(OCc3ccccc3)cccc21 | 117 to 120
35 | CC(C)(Cc1c[nH]c2ccccc12)NCC(O)COc1ccccc1Cl (stereo not drawn) | 150 to 154
36 | C=C(C)C(OC(=O)Nc1cc(OC(=O)Oc2cc(NC(=O)OC(C(=C)C)C(=O)OC)c(F)cc2Cl)c(Cl)cc1F)C(=O)OC (stereo not drawn) | 72 to 74
37 | CCCCS(=O)(=O)NC1Cc2ccc(C3=NNC(=O)CC3(C)C)cc2C1 (stereo not drawn) | 159 to 161
38 | COc1cccc(OC)c1-c1cc2cnc(N)nc2nc1N | > 300
39 | CC1(C)CC(=O)CC(=O)C1c1ccccc1 (stereo not drawn) | 133 to 135
40 | Nc1cc(C(=O)O)cc(OCc2ccccc2)c1C(=O)c1ccc(Cl)cc1 | 196 to 197
41 | CS(=O)(=O)c1ccc(Oc2ccc(SC(F)(F)F)cc2)nc1 | 134 to 135
42 | O=C(Nc1ccc(-n2nc(C(F)(F)F)cc2C(F)(F)F)cc1)c1c(Cl)ccc([N+](=O)[O-])c1Cl | 160 to 161
43 | C#Cc1cnn2c(C)cc(-c3ccc(C(F)(F)F)cc3)nc12 | 89 to 90
44 | Cc1nnc(-c2ccc(F)cc2F)n2nc(OCc3ncnn3C)c(-c3ccsc3)c12 | 144 to 146
45 | O=C(CCCC(=O)N1CCC(c2ccc(Cl)cc2)CC1)c1ccc2c(c1)CCNCC2 | 112 to 113
46 | CN(C(=O)CCCOc1ccc2c(c1)CN1CC(=O)NC1=N2)C1CCCCC1 | 243 to 244

Row | SMILES | melting point [°C]
47 | CNCc1cccc(C2CCN(c3c(F)c(N)c4c(=O)c(C(=O)O)cn(C5CC5)c4c3F)C2)c1 (stereo not drawn) | > 270
48 | O=Cc1cc(Cl)ccc1OC/C=C/CCl | 62 to 63
49 | CC(=Cc1c[nH]c2ccc3c(c12)CC(O)CO3)[N+](=O)[O-] (stereo not drawn) | 240 to 242
50 | Cc1nc(-c2ccc(-c3ccc(C(=O)Nc4cc(OCCN(C)C)ccc4Cl)cc3)c(C)c2)no1 | 101 to 102
51 | CC(=O)N(C)c1c(C(=O)C2CCCCC2)[nH]c2cc(Cl)ccc12 | 162 to 163
52 | O=C(Nc1ccc(C(F)(F)F)cc1)N1CC(NC(=O)C(F)(F)F)C(c2ccc(Cl)cc2)=N1 (stereo not drawn) | 259 to 260
53 | CCOc1ccc(C2=NN(C3CCCCCC3)C(=O)[C@H]3CC=CC[C@@H]23)cc1OCC (relative stereo) | 92 to 93
54 | CCCCNC(=O)C(O[Si](C)(C)C(C)(C)C)c1ccccc1Br (stereo not drawn) | 38 to 39
55 | COc1ccc(CN(C)CC=Cc2ccc(NC(=O)c3cccc4c(=O)c5cccc(OC)c5[nH]c34)cc2)cc1OC | 200
56 | Cc1c(-c2ccccc2)n(-c2c(F)cccc2F)c(-c2ccccc2)cc1=O | 219 to 221
57 | COc1ccc(C(=O)c2cn(C)c3ccc([N+](=O)[O-])cc23)cc1 | 229
58 | O=Cc1cc2cc(OCc3ccccc3)ccc2nc1Cl | 180 to 182
59 | COc1ccc(CCn2cc(C(=O)NCCN(C)C)c3nc4c(C)cccc4cc3c2=O)cc1OC | 113 to 114
60 | CC1CCCN1c1ccccc1NC(N)=S (stereo not drawn) | 145 to 148
61 | Cn1c(CC(=O)O)ccc1C(=O)c1cccc(Cl)c1 | 165
62 | Cn1nc(Cl)c(C(=O)C(Br)c2ccccc2)c1Cl (stereo not drawn) | 74.5 to 75.5
63 | COc1cc2nc(SCc3ccccc3)nn2c(Cl)n1 | 140 to 141
64 | CC(=O)Nc1cccc2c(=O)n(C)c3ccccc3c(=O)c12 | 199 to 201
65 | O=S(=O)(CC1CCCCN1S(=O)(=O)c1ccccc1)c1ccc(Cl)cc1 (stereo not drawn) | 129 to 131
66 | COc1ccc(-c2csc(C(=O)O)n2)cc1OC | 105 to 106
67 | O=C(c1ccc(F)cc1)C1CCN(CCn2c(=O)[nH]c3sccc3c2=O)CC1 | 231 to 235
68 | O=[N+]([O-])c1ccc(Oc2ccccc2Oc2ccc([N+](=O)[O-])cc2)cc1 | 134 to 135
